Results from BindingDB's records for doi:10.1021/jm00006a008 (Glaxo Research Institute, 1995).

Assay: Inhibition of bovine topoisomerase I, using cleavable complex assay.

| Structure (SMILES) | IC50 [µM] |
| --- | --- |
| CCC1(O)C(=O)OCc2c1cc1n(c2=O)C/C(=C2\C(=O)Nc3c2ccc(F)c3C)C1=O (stereo not drawn) [4-Ethyl-7-[6-fluoro-7-methyl-2-oxo-1,2-dihydro-indol-(3E)-ylidene]-4-hydroxy-1,4,7,8-tetrahydro-pyrano[3,4-f]indolizine-3,6,10-trione] | > 100 |
| CC[C@]1(O)C(=O)OCc2c1cc1n(c2=O)C/C(=C2\C(=O)Nc3ccccc32)C1=O [(R)-4-Ethyl-4-hydroxy-7-[2-oxo-1,2-dihydro-indol-(3E)-ylidene]-1,4,7,8-tetrahydro-pyrano[3,4-f]indolizine-3,6,10-trione] | 4 |
| CCC1(O)C(=O)OCc2c1cc1n(c2=O)C/C(=C2\C(=O)Nc3ccc(F)cc32)C1=O (stereo not drawn) [4-Ethyl-7-[5-fluoro-2-oxo-1,2-dihydro-indol-(3E)-ylidene]-4-hydroxy-1,4,7,8-tetrahydro-pyrano[3,4-f]indolizine-3,6,10-trione] | 1.2 |
| CC[C@]1(O)C(=O)OCc2c1cc1n(c2=O)C/C(=C2\C(=O)Nc3c(C)cccc32)C1=O [(R)-4-Ethyl-4-hydroxy-7-[7-methyl-2-oxo-1,2-dihydro-indol-(3E)-ylidene]-1,4,7,8-tetrahydro-pyrano[3,4-f]indolizine-3,6,10-trione] | > 100 |
| CC[C@@]1(O)C(=O)OCc2c1cc1n(c2=O)C/C(=C2\C(=O)Nc3ccccc32)C1=O [(S)-4-Ethyl-4-hydroxy-7-[2-oxo-1,2-dihydro-indol-(3E)-ylidene]-1,4,7,8-tetrahydro-pyrano[3,4-f]indolizine-3,6,10-trione] | > 100 |
| CC[C@]1(O)C(=O)OCc2c1cc1n(c2=O)C/C(=C2\C(=O)Nc3cc(F)c(F)cc32)C1=O [(R)-7-[5,6-Difluoro-2-oxo-1,2-dihydro-indol-(3E)-ylidene]-4-ethyl-4-hydroxy-1,4,7,8-tetrahydro-pyrano[3,4-f]indolizine-3,6,10-trione] | 1.3 |
| CC[C@]1(O)C(=O)OCc2c1cc1n(c2=O)C/C(=C2\C(=O)Nc3ccc(Br)cc32)C1=O [(R)-7-[5-Bromo-2-oxo-1,2-dihydro-indol-(3E)-ylidene]-4-ethyl-4-hydroxy-1,4,7,8-tetrahydro-pyrano[3,4-f]indolizine-3,6,10-trione] | > 100 |
| CC[C@]1(O)C(=O)OCc2c1cc1n(c2=O)C/C(=C2\C(=O)Nc3ccc(F)cc32)C1=O [(R)-4-Ethyl-7-[5-fluoro-2-oxo-1,2-dihydro-indol-(3E)-ylidene]-4-hydroxy-1,4,7,8-tetrahydro-pyrano[3,4-f]indolizine-3,6,10-trione] | 1.1 |
| CCC1(O)C(=O)OCc2c1cc1n(c2=O)C/C(=C2\C(=O)Nc3cc(OC)ccc32)C1=O (stereo not drawn) [4-Ethyl-4-hydroxy-7-[6-methoxy-2-oxo-1,2-dihydro-indol-(3E)-ylidene]-1,4,7,8-tetrahydro-pyrano[3,4-f]indolizine-3,6,10-trione] | > 100 |
| CCC1(O)C(=O)OCc2c1cc1n(c2=O)C/C(=C2\C(=O)Nc3ccccc32)C1=O (stereo not drawn) [4-Ethyl-4-hydroxy-7-[2-oxo-1,2-dihydro-indol-(3E)-ylidene]-1,4,7,8-tetrahydro-pyrano[3,4-f]indolizine-3,6,10-trione] | 5.8 |
| CC[C@]1(O)C(=O)OCc2c1cc1n(c2=O)C/C(=C2\C(=O)Nc3ccc(I)cc32)C1=O [(R)-4-Ethyl-4-hydroxy-7-[5-iodo-2-oxo-1,2-dihydro-indol-(3E)-ylidene]-1,4,7,8-tetrahydro-pyrano[3,4-f]indolizine-3,6,10-trione] | 12.1 |
| CC[C@]1(O)C(=O)OCc2c1cc1n(c2=O)C/C(=C2\C(=O)Nc3cc(SC)ccc32)C1=O [(R)-4-Ethyl-4-hydroxy-7-[6-methylsulfanyl-2-oxo-1,2-dihydro-indol-(3E)-ylidene]-1,4,7,8-tetrahydro-pyrano[3,4-f]indolizine-3,6,10-trione] | > 100 |
| CCC1(O)C(=O)OCc2c1cc1n(c2=O)C/C(=C2\C(=O)Nc3c2cc(F)c(F)c3F)C1=O (stereo not drawn) [4-Ethyl-4-hydroxy-7-[5,6,7-trifluoro-2-oxo-1,2-dihydro-indol-(3E)-ylidene]-1,4,7,8-tetrahydro-pyrano[3,4-f]indolizine-3,6,10-trione] | > 100 |
| CC[C@]1(O)C(=O)OCc2c1cc1n(c2=O)C/C(=C2\C(=O)Nc3c2cc(C)cc3[N+](=O)[O-])C1=O [(R)-4-Ethyl-4-hydroxy-7-[5-methyl-7-nitro-2-oxo-1,2-dihydro-indol-(3E)-ylidene]-1,4,7,8-tetrahydro-pyrano[3,4-f]indolizine-3,6,10-trione] | > 100 |
| CCC1(O)C(=O)OCc2c1cc1n(c2=O)C/C(=C2\C(=O)Nc3ccc(I)cc32)C1=O (stereo not drawn) [4-Ethyl-4-hydroxy-7-[5-iodo-2-oxo-1,2-dihydro-indol-(3E)-ylidene]-1,4,7,8-tetrahydro-pyrano[3,4-f]indolizine-3,6,10-trione] | 32 |
| CC[C@@]1(O)C(=O)OCc2c1cc1n(c2=O)C/C(=C2\C(=O)Nc3ccc(F)cc32)C1=O [(S)-4-Ethyl-7-[5-fluoro-2-oxo-1,2-dihydro-indol-(3E)-ylidene]-4-hydroxy-1,4,7,8-tetrahydro-pyrano[3,4-f]indolizine-3,6,10-trione] | > 100 |
| CC[C@]1(O)C(=O)OCc2c1cc1n(c2=O)C/C(=C2\C(=O)Nc3ccc(C)cc32)C1=O [(R)-4-Ethyl-4-hydroxy-7-[5-methyl-2-oxo-1,2-dihydro-indol-(3E)-ylidene]-1,4,7,8-tetrahydro-pyrano[3,4-f]indolizine-3,6,10-trione] | 1.8 |
| CCC1(O)C(=O)OCc2c1cc1n(c2=O)C/C(=C2\C(=O)Nc3cc4c(cc32)OCCO4)C1=O (stereo not drawn) [4-Ethyl-4-hydroxy-7-[7-oxo-2,3,6,7-tetrahydro-[1,4]dioxino[2,3-f]indol-(8E)-ylidene]-1,4,7,8-tetrahydro-pyrano[3,4-f]indolizine-3,6,10-trione] | 29.6 |
| CCC1(O)C(=O)OCc2c1cc1n(c2=O)C/C(=C2\C(=O)N(C)c3ccccc32)C1=O (stereo not drawn) [4-Ethyl-4-hydroxy-7-[1-methyl-2-oxo-1,2-dihydro-indol-(3E)-ylidene]-1,4,7,8-tetrahydro-pyrano[3,4-f]indolizine-3,6,10-trione] | > 100 |
| CCC1(O)C(=O)OCc2c1cc1n(c2=O)C/C(=C2\C(=O)Nc3cc(F)c(F)cc32)C1=O (stereo not drawn) [7-[5,6-Difluoro-2-oxo-1,2-dihydro-indol-(3E)-ylidene]-4-ethyl-4-hydroxy-1,4,7,8-tetrahydro-pyrano[3,4-f]indolizine-3,6,10-trione] | 1.5 |
| CCC1(O)C(=O)OCc2c1cc1n(c2=O)C/C(=C2\C(=O)Nc3ccc(Cl)cc32)C1=O (stereo not drawn) [7-[5-Chloro-2-oxo-1,2-dihydro-indol-(3E)-ylidene]-4-ethyl-4-hydroxy-1,4,7,8-tetrahydro-pyrano[3,4-f]indolizine-3,6,10-trione] | > 100 |
| CC[C@]1(O)C(=O)OCc2c1cc1n(c2=O)C/C(=C2\C(=O)Nc3cc(OC(F)(F)F)ccc32)C1=O [(R)-4-Ethyl-4-hydroxy-7-[2-oxo-6-trifluoromethoxy-1,2-dihydro-indol-(3E)-ylidene]-1,4,7,8-tetrahydro-pyrano[3,4-f]indolizine-3,6,10-trione] | > 100 |
| CC[C@]1(O)C(=O)OCc2c1cc1n(c2=O)C/C(=C2\C(=O)Nc3c(Cl)cccc32)C1=O [(R)-7-[7-Chloro-2-oxo-1,2-dihydro-indol-(3E)-ylidene]-4-ethyl-4-hydroxy-1,4,7,8-tetrahydro-pyrano[3,4-f]indolizine-3,6,10-trione] | > 100 |
